Activity calls are given as the source filed them. The rule behind the calls is not given here.
Key:
MCF7 = test: Compound was evaluated for growth inhibition against MCF-7 cells using cellular assay; assay type: functional; details: Homo sapiens
NCI-H520 = test: Compound was evaluated for growth inhibition against NCI-H520 cells using cellular assay; assay type: functional; details: Homo sapiens
PC-3 = test: Compound was evaluated for growth inhibition against PC-3 cells using cellular assay; assay type: functional; details: Homo sapiens
Bos taurus = organism: Bos taurus; test: Compound was evaluated for inhibition of tubulin polymerization in bovine brain tubulin; assay type: functional
[1] = target: T1, DNA topoisomerase II (Homo sapiens) (UniProt P11388+Q02880); test: Compound was evaluated for its ability to affect topoisomerase II inhibition; active; assay type: protein assay
[2] = target: T1, DNA topoisomerase II (Homo sapiens); test: Compound was evaluated for its ability to affect topoisomerase II inhibition; inactive; assay type: protein assay

COc1cc([C@@H]2c3[nH]c4ccccc4c3C[C@H]3COC(=O)N32)cc(OC)c1O gave a GI50 (MCF7) of 250 nM, a GI50 (NCI-H520) of 120 nM and a GI50 (PC-3) of 200 nM. The IC50 (Bos taurus) was 20.3 µM and the Activity [1] was “Active”.
With COc1cc2c(c(OC)c1OC)-c1ccc(OC)c(=O)cc1[C@@H](NC(C)=O)CC2 [COLCHICINE] the GI50 (MCF7) was < 50 nM, the GI50 (NCI-H520) was < 50 nM and the GI50 (PC-3) was < 50 nM. The IC50 (Bos taurus) was 11.8 µM and the Activity [2] was “inactive”.
With COc1cc([C@@H]2c3[nH]c4ccc5ccccc5c4c3C[C@H]3COC(=O)N32)cc(OC)c1O the GI50 (MCF7) was 2000 nM, the GI50 (NCI-H520) was 800 nM and the GI50 (PC-3) was 2000 nM. The IC50 (Bos taurus) was 5.6 µM and the Activity [2] was “inactive”.
In the case of COc1cc([C@@H]2c3[nH]c4cc5ccccc5cc4c3C[C@H]3COC(=O)N32)cc(OC)c1O, the GI50 (MCF7) is reported as 5000 nM, the GI50 (NCI-H520) is reported as 4000 nM and the GI50 (PC-3) is reported as 10000 nM. For the same compound, the IC50 (Bos taurus) was 6.7 µM and the Activity [2] was “inactive”.
For COc1cc([C@@H]2c3[nH]c4c(ccc5ccccc54)c3C[C@H]3COC(=O)N32)cc(OC)c1O, the GI50 (MCF7) was > 50000 nM, the GI50 (NCI-H520) was > 50000 nM and the GI50 (PC-3) was > 50000 nM. For the same compound, the IC50 (Bos taurus) was 51 µM and the Activity [2] was “inactive”.
